“And” between values parts separate entries of the source, which are not always exact repeats. Equal entries are not always repeated.
How the values were obtained:
Type in all cases: toxicity, cell-based
HEK-293T = test: Incucyte cell viability with HEK293T; details: human, 10 µM, compound concentration 10 uM
U2OS = test: Incucyte cell viability with U2OS; details: human, 10 µM, compound concentration 10 uM
Fibroblast = test: Incucyte cell viability with human fibroblast; details: 10 µM, compound concentration 10 uM
Also: unitless GR value; below 1 slowed growth and below 0 cell loss.

Row | SMILES | Growth Rate (U2OS; 0 h, replicate number 2) | Growth Rate (U2OS; 6 h, replicate number 1) | Growth Rate (U2OS; 6 h, replicate number 2) | Growth Rate (U2OS; 12 h, replicate number 1) | Growth Rate (U2OS; 12 h, replicate number 2) | Growth Rate (U2OS; 18 h, replicate number 2) | Growth Rate (U2OS; 24 h, replicate number 2) | Growth Rate (Fibroblast; 12 h, replicate number 2) | Growth Rate (HEK-293T; 6 h, replicate number 1) | Growth Rate (HEK-293T; 6 h, replicate number 2) | Growth Rate (HEK-293T; 12 h, replicate number 1) | Growth Rate (HEK-293T; 12 h, replicate number 2) | Growth Rate (HEK-293T; 18 h, replicate number 1) | Growth Rate (HEK-293T; 18 h, replicate number 2) | Growth Rate (HEK-293T; 24 h, replicate number 1) | Growth Rate (Fibroblast; 0 h, replicate number 2) | Growth Rate (Fibroblast; 6 h, replicate number 2) | Growth Rate (Fibroblast; 12 h, replicate number 1) | Growth Rate (Fibroblast; 18 h, replicate number 1) | Growth Rate (Fibroblast; 24 h, replicate number 1) | further results
1 | Cc1nc2ccccc2c(-c2ccc3c4c(ccnc24)CCO3)c1[C@H](OC(C)(C)C)C(=O)O [BI-224436] | -0.37 | 0.57 | 0.42 | 0.77 | 0.72 | 0.85 | 0.75 | 0.76 |  |  |  |  |  |  |  |  |  |  |  |  | Growth Rate (HEK-293T; 0 h, replicate number 1): 0.67; Growth Rate (HEK-293T; 0 h, replicate number 2): 0.86
2 | CCC(F)(F)c1cc(N2CCC(S(C)(=O)=O)CC2)nc2sc(C(N)=O)c(N)c12 [BI-605906] |  | 0.71 |  |  | -0.82 | 0.92 | 0.9 | 0.85 and 0.57 and 0.87 | 0.34 and 0.47 | 0.83 and 0.48 | 0.79 and 0.84 | 0.72 | 0.74 and 0.73 | 0.97 and 0.85 | 0.98 | 0.48 | 0.76 and 0.88 | 0.8 | 0.99 | 0.9 and 0.91 | Growth Rate (HEK-293T; 0 h, replicate number 1): -0.07; Growth Rate (HEK-293T; 24 h, replicate number 2): 0.91; Growth Rate (U2OS; 18 h, replicate number 1): 0.91; Growth Rate (U2OS; 24 h, replicate number 1): 0.96; Growth Rate (Fibroblast; 0 h, replicate number 1): 0.11; Growth Rate (Fibroblast; 6 h, replicate number 1): 0.8; Growth Rate (Fibroblast; 24 h, replicate number 2): 0.97 and 0.94
3 | COc1ccc(-c2coc3cc(O)cc(O)c3c2=O)cc1 [BIOCHANIN] | -0.91 | 1 |  |  | 0.77 |  | 0.93 | 0.69 | 0.75 |  |  |  |  | 1 |  | -0.65 | 0.58 | -0.08 | 0.21 |  | Growth Rate (HEK-293T; 0 h, replicate number 2): 0.93; Growth Rate (U2OS; 0 h, replicate number 1): 0.85; Growth Rate (U2OS; 24 h, replicate number 1): 0.95; Growth Rate (Fibroblast; 0 h, replicate number 1): 0.87; Growth Rate (Fibroblast; 24 h, replicate number 2): 0.94
4 | CC[C@H](NC(=O)[C@H](C)NC)C(=O)N1C[C@@H](O)C[C@H]1Cc1c(-c2[nH]c3cc(F)ccc3c2C[C@@H]2C[C@H](O)CN2C(=O)[C@H](CC)NC(=O)[C@H](C)NC)[nH]c2cc(F)ccc12 [BIRINAPANT] |  |  |  | 0.81 |  |  |  |  | 0.67 | 0.87 | 0.62 | 0.97 | 0.9 |  |  | -0.61 |  |  |  |  | Growth Rate (U2OS; 0 h, replicate number 1): 0.94; Growth Rate (U2OS; 18 h, replicate number 1): 0.98; Growth Rate (Fibroblast; 0 h, replicate number 1): -0.44
5 | CC(C)(c1ccc(O)cc1)c1ccc(O)cc1 [BISPHENOL A] |  |  |  |  | 1 |  | 0.96 | 0.83 | 0.82 |  |  |  |  |  |  |  | -0.05 | 0.37 |  | 0.57 | Growth Rate (Fibroblast; 18 h, replicate number 2): 0.7
6 | CC(C)(C)c1cnc(CSc2cnc(NC(=O)C3CCNCC3)s2)o1 [BMS-387032] | 0.54 | 0.69 | 0.29 | 0.45 | 0.05 | 0.04 | -0.1 | -0.28 | -0.41 | -0.76 | -0.29 | -0.64 | -0.21 | -0.48 | -0.2 | -0.8 | -0.1 | 0.11 | 0.32 | 0.23 | Growth Rate (HEK-293T; 24 h, replicate number 2): -0.37; Growth Rate (U2OS; 0 h, replicate number 1): -1; Growth Rate (U2OS; 18 h, replicate number 1): 0.27; Growth Rate (U2OS; 24 h, replicate number 1): 0.05; Growth Rate (Fibroblast; 0 h, replicate number 1): -1; Growth Rate (Fibroblast; 6 h, replicate number 1): 0.49; Growth Rate (Fibroblast; 18 h, replicate number 2): -0.23; Growth Rate (Fibroblast; 24 h, replicate number 2): -0.26
7 | CC(C)(O)c1cn(-c2ccc(-c3cccc(S(C)(=O)=O)c3)cc2)c(C(C)(C)c2ccccc2Cl)n1 [BMS-779788] | 0.31 |  | 0.61 |  | 0.79 | 0.76 | 0.7 | 0.55 |  | 0.58 | 0.97 | 0.93 | 0.81 | 0.87 | 0.9 |  | 0.64 | 0.66 | 0.36 | 0.75 | Growth Rate (HEK-293T; 0 h, replicate number 1): -0.7; Growth Rate (HEK-293T; 24 h, replicate number 2): 0.92; Growth Rate (Fibroblast; 6 h, replicate number 1): -0.03; Growth Rate (Fibroblast; 18 h, replicate number 2): 0.78; Growth Rate (Fibroblast; 24 h, replicate number 2): 0.63
8 | NS(=O)(=O)c1cncc(-c2nc(NCc3ccccn3)c3c(-c4ccccc4)cccc3n2)c1 [BMS-919373] | -0.7 |  |  | 0.98 | 0.71 | 0.59 | 0.63 |  | 0.01 | 0.33 | 0.64 | 0.24 | 0.69 | 0.22 | 1 | -0.92 |  | -1 | 0.34 |  | Growth Rate (HEK-293T; 24 h, replicate number 2): 0.26; Growth Rate (U2OS; 0 h, replicate number 1): 0.72
9 | Cc1c(-c2c(F)cc(C(N)=O)c3[nH]c4c(c23)CC[C@H](C(C)(C)O)C4)cccc1-n1c(=O)c2cccc(F)c2n(C)c1=O [BMS-986142] | 0.95 | 0.26 | 0.48 | 0.52 | 0.67 | 0.66 | 0.73 | 0.19 | -0.93 | -0.99 | -0.7 | -0.83 | -0.43 | -0.59 | -0.25 |  | -0.9 | 0.08 | 0.54 | 0.8 | Growth Rate (HEK-293T; 24 h, replicate number 2): -0.39; Growth Rate (U2OS; 0 h, replicate number 1): 0.59; Growth Rate (U2OS; 18 h, replicate number 1): 0.59; Growth Rate (U2OS; 24 h, replicate number 1): 0.49; Growth Rate (Fibroblast; 0 h, replicate number 1): -1; Growth Rate (Fibroblast; 6 h, replicate number 1): -0.27; Growth Rate (Fibroblast; 18 h, replicate number 2): 0.73; Growth Rate (Fibroblast; 24 h, replicate number 2): 1
10 | O=C(N[C@@H]1C2CCN(CC2)[C@H]1Cc1cccnc1)c1cc2ccccc2o1 [BRADANICLINE] |  |  | 0.66 |  | 0.78 | 0.99 | 0.96 |  |  |  |  |  |  | 0.96 | 0.96 | -0.99 |  | -0.73 | 0.35 | 0.82 | Growth Rate (HEK-293T; 0 h, replicate number 1): 0.69; Growth Rate (HEK-293T; 0 h, replicate number 2): 0.79; Growth Rate (U2OS; 24 h, replicate number 1): 0.93
